Experimental data from the NIST ThermoML archive (doi:10.1021/je9002515).

Test: xn = mol fraction of the nth substance listed
Conditions: 101 kPa, Liquid, Alternating current cell with electrodes

CNC(C)=O [N-methylacetamide] + CC(=O)N(C)C
electrical conductivity [S/m]
Conditions	303.15 K	313.15 K	323.15 K	333.15 K	343.15 K	353.15 K	363.15 K	373.15 K	383.15 K	393.15 K
x1 = 0.1041	0.0107	0.0131	0.0151	0.0175	0.0202	0.0234	0.0269	0.0305	0.0344	0.0396
x1 = 0.2077	0.0173	0.0201	0.023	0.0261	0.0299	0.0349	0.0413	0.049	0.0567	0.0641
x1 = 0.3056	0.0162	0.0192	0.0229	0.0273	0.0331	0.0403	0.0495	0.06	0.0708	0.081
x1 = 0.4019	0.0203	0.0241	0.0285	0.0335	0.0394	0.0464	0.0548	0.0646	0.075	0.0851
x1 = 0.506	0.0239	0.0287	0.034	0.0397	0.0459	0.0532	0.0619	0.0714	0.0813	0.0907
x1 = 0.6088	0.0215	0.0262	0.0315	0.0373	0.0436	0.051	0.0597	0.0702	0.0816	0.0934
x1 = 0.6985	0.0328	0.04	0.0485	0.0584	0.0688	0.0798	0.0922	0.106	0.119	0.131
x1 = 0.7974	0.0314	0.039	0.0477	0.0571	0.0666	0.076	0.0854	0.0948	0.105	0.118
x1 = 0.9001	0.0329	0.0421	0.0528	0.0645	0.0778	0.0929	0.11	0.127	0.146	0.167
x1 = 1	0.0324	0.0447	0.0614	0.0775	0.105	0.129	0.165	0.192	0.219	0.247
